Values of other authors, collected in patent US9949941B2, “GABA analog prodrug sustained release oral dosage forms” (XENOPORT, INC., priority 2004, dated 2018).

Experiments:
[1] = dosed either orally or directly into the colon of a mammal

Row | SMILES | Tmax following administration of gabapentin alone (fasted and fed patients) [h] | typical Tmax of immediate release gabapentin (immediate release gabapentin) [h] | bioavailability as gabapentin [1]
1 | NCC1(CC(=O)O)CCCCC1 [gabapentin] | 2 to 4 | 2 to 4 | –
2 | CC(OC(=O)NCC1(CC(=O)O)CCCCC1)OC(=O)C(C)C (stereo not drawn) [Compound (1), 1-{[(α-isobutanoyloxyethoxy)carbonyl]aminomethyl}-1-cyclohexane acetic acid] | – | – | high bioavailability
